Source: ChEMBL document CHEMBL3885881, “DrugMatrix”

Species on record: Rattus norvegicus
Test: DrugMatrix - Regimen: Daily Repeat
Assay type: toxicity, organism-based, Sprague-Dawley
Set-up: regimen Daily Repeat, gender Male, age 6-8 weeks
Conditions: in vivo, po, route oral GAVAGE, vehicle .5 % CMC; for ABSOLUTE BASOPHIL / ABSOLUTE EOSINOPHIL / ABSOLUTE LYMPHOCYTE / ABSOLUTE MONOCYTE / ABSOLUTE SEGMENTED NEUTROPHIL / BASOPHIL / EOSINOPHIL / ERYTHROCYTE COUNT / HEMATOCRIT / HEMOGLOBIN / LEUKOCYTE COUNT / LYMPHOCYTE / MEAN CORPUSCULAR HEMOGLOBIN / MEAN CORPUSCULAR HEMOGLOBIN CONCENTRATION / MEAN CORPUSCULAR VOLUME / MONOCYTE / NEUTROPHIL / NUCLEATED RED BLOOD CELLS / PLATELET COUNT: tissue Blood; for ALANINE AMINOTRANSFERASE / ALBUMIN / ALKALINE PHOSPHATASE / ASPARTATE AMINOTRANSFERASE / BLOOD UREA NITROGEN / CARBON DIOXIDE / CHLORIDE / CHOLESTEROL / CREATINE PHOSPHOKINASE / CREATININE / GLUCOSE / LACTATE DEHYDROGENASE / LIPASE / PHOSPHORUS / POTASSIUM / SODIUM / TOTAL BILIRUBIN / TOTAL PROTEIN / URIC ACID: tissue Plasma
[1] = 200 mg/kg, 72 h, dose level Low, time 3 day
[2] = 200 mg/kg, 120 h, dose level Low, time 5 day
[3] = 1300 mg/kg, 72 h, dose level High, time 3 day
[4] = 1300 mg/kg, 120 h, dose level High, time 5 day

NC(=O)c1ccccc1O [SALICYLAMIDE]
ABSOLUTE BASOPHIL [1]: 0 CELLS/uL
ABSOLUTE EOSINOPHIL [1]: 126.67 CELLS/uL
ABSOLUTE LYMPHOCYTE [1]: 13749 CELLS/uL
ABSOLUTE MONOCYTE [1]: 274.67 CELLS/uL
ABSOLUTE SEGMENTED NEUTROPHIL [1]: 2049.67 CELLS/uL
BASOPHIL [1]: 0%
EOSINOPHIL [1]: 0.67%
ERYTHROCYTE COUNT [1]: 5.79 x10E6/uL
HEMATOCRIT [1]: 37.07%
HEMOGLOBIN [1]: 13.9 G/DL
LEUKOCYTE COUNT [1]: 16.2 x10E3/uL
LYMPHOCYTE [1]: 85%
MEAN CORPUSCULAR HEMOGLOBIN [1]: 24.03 pg
MEAN CORPUSCULAR HEMOGLOBIN CONCENTRATION [1]: 37.5 G/DL
MEAN CORPUSCULAR VOLUME [1]: 64.07 fL
MONOCYTE [1]: 1.67%
NEUTROPHIL [1]: 12.67%
NUCLEATED RED BLOOD CELLS [1]: 0 /100WBC
PLATELET COUNT [1]: 1342.33 x10E3/uL
ALANINE AMINOTRANSFERASE [1]: 47 u/L
ALBUMIN [1]: 4.23 G/DL
ALKALINE PHOSPHATASE [1]: 337 u/L
ASPARTATE AMINOTRANSFERASE [1]: 92 u/L
BLOOD UREA NITROGEN [1]: 14.67 mg/dL
CARBON DIOXIDE [1]: 28.67 mmol/L
CHLORIDE [1]: 102.33 MEQ/L
CHOLESTEROL [1]: 91.33 mg/dL
CREATINE PHOSPHOKINASE [1]: 270 u/L
CREATININE [1]: 0.24 mg/dL
GLUCOSE [1]: 149.67 mg/dL
LACTATE DEHYDROGENASE [1]: 413.33 u/L
LIPASE [1]: 9.67 u/L
PHOSPHORUS [1]: 12.53 mg/dL
POTASSIUM [1]: 7.01 MEQ/L
SODIUM [1]: 146.23 MEQ/L
TOTAL BILIRUBIN [1]: 0.2 mg/dL
TOTAL PROTEIN [1]: 5.93 G/DL
URIC ACID [1]: 1.77 mg/dL
ABSOLUTE BASOPHIL [2]: 0 CELLS/uL
ABSOLUTE EOSINOPHIL [2]: 0 CELLS/uL
ABSOLUTE LYMPHOCYTE [2]: 13314 CELLS/uL
ABSOLUTE MONOCYTE [2]: 96.33 CELLS/uL
ABSOLUTE SEGMENTED NEUTROPHIL [2]: 1389.67 CELLS/uL
BASOPHIL [2]: 0%
EOSINOPHIL [2]: 0%
ERYTHROCYTE COUNT [2]: 5.67 x10E6/uL
HEMATOCRIT [2]: 34.73%
HEMOGLOBIN [2]: 13.53 G/DL
LEUKOCYTE COUNT [2]: 14.8 x10E3/uL
LYMPHOCYTE [2]: 90%
MEAN CORPUSCULAR HEMOGLOBIN [2]: 24 pg
MEAN CORPUSCULAR HEMOGLOBIN CONCENTRATION [2]: 39 G/DL
MEAN CORPUSCULAR VOLUME [2]: 61.53 fL
MONOCYTE [2]: 0.67%
NEUTROPHIL [2]: 9.33%
NUCLEATED RED BLOOD CELLS [2]: 0 /100WBC
PLATELET COUNT [2]: 1300.67 x10E3/uL
ALANINE AMINOTRANSFERASE [2]: 41.67 u/L
ALBUMIN [2]: 4.13 G/DL
ALKALINE PHOSPHATASE [2]: 340 u/L
ASPARTATE AMINOTRANSFERASE [2]: 77.67 u/L
BLOOD UREA NITROGEN [2]: 15.33 mg/dL
CARBON DIOXIDE [2]: 27 mmol/L
CHLORIDE [2]: 104 MEQ/L
CHOLESTEROL [2]: 78.33 mg/dL
CREATINE PHOSPHOKINASE [2]: 235.33 u/L
CREATININE [2]: 0.22 mg/dL
GLUCOSE [2]: 151 mg/dL
LACTATE DEHYDROGENASE [2]: 176 u/L
LIPASE [2]: 9.33 u/L
PHOSPHORUS [2]: 12.43 mg/dL
POTASSIUM [2]: 6.83 MEQ/L
SODIUM [2]: 145.3 MEQ/L
TOTAL BILIRUBIN [2]: 0.13 mg/dL
TOTAL PROTEIN [2]: 5.83 G/DL
URIC ACID [2]: 1.57 mg/dL
ABSOLUTE BASOPHIL [3]: 0 CELLS/uL
ABSOLUTE EOSINOPHIL [3]: 0 CELLS/uL
ABSOLUTE LYMPHOCYTE [3]: 15293.5 CELLS/uL
ABSOLUTE MONOCYTE [3]: 351 CELLS/uL
ABSOLUTE SEGMENTED NEUTROPHIL [3]: 1905.5 CELLS/uL
BASOPHIL [3]: 0%
EOSINOPHIL [3]: 0%
ERYTHROCYTE COUNT [3]: 6 x10E6/uL
HEMATOCRIT [3]: 36.9%
HEMOGLOBIN [3]: 14.4 G/DL
LEUKOCYTE COUNT [3]: 17.55 x10E3/uL
LYMPHOCYTE [3]: 87%
MEAN CORPUSCULAR HEMOGLOBIN [3]: 24 pg
MEAN CORPUSCULAR HEMOGLOBIN CONCENTRATION [3]: 39 G/DL
MEAN CORPUSCULAR VOLUME [3]: 61.55 fL
MONOCYTE [3]: 2%
NEUTROPHIL [3]: 11%
NUCLEATED RED BLOOD CELLS [3]: 0 /100WBC
PLATELET COUNT [3]: 1429 x10E3/uL
ALANINE AMINOTRANSFERASE [3]: 90 u/L
ALBUMIN [3]: 4.2 G/DL
ALKALINE PHOSPHATASE [3]: 469 u/L
ASPARTATE AMINOTRANSFERASE [3]: 83 u/L
BLOOD UREA NITROGEN [3]: 14 mg/dL
CARBON DIOXIDE [3]: 30.5 mmol/L
CHLORIDE [3]: 101 MEQ/L
CHOLESTEROL [3]: 71.5 mg/dL
CREATINE PHOSPHOKINASE [3]: 167.5 u/L
CREATININE [3]: 0.12 mg/dL
GLUCOSE [3]: 146.5 mg/dL
LACTATE DEHYDROGENASE [3]: 166 u/L
LIPASE [3]: 9.5 u/L
PHOSPHORUS [3]: 12.5 mg/dL
POTASSIUM [3]: 6.86 MEQ/L
SODIUM [3]: 145.55 MEQ/L
TOTAL BILIRUBIN [3]: 0.2 mg/dL
TOTAL PROTEIN [3]: 5.75 G/DL
URIC ACID [3]: 1.65 mg/dL
ABSOLUTE BASOPHIL [4]: 0 CELLS/uL
ABSOLUTE EOSINOPHIL [4]: 33.67 CELLS/uL
ABSOLUTE LYMPHOCYTE [4]: 13088.67 CELLS/uL
ABSOLUTE MONOCYTE [4]: 0 CELLS/uL
ABSOLUTE SEGMENTED NEUTROPHIL [4]: 1544.33 CELLS/uL
BASOPHIL [4]: 0%
EOSINOPHIL [4]: 0.33%
ERYTHROCYTE COUNT [4]: 5.56 x10E6/uL
HEMATOCRIT [4]: 35.47%
HEMOGLOBIN [4]: 14.03 G/DL
LEUKOCYTE COUNT [4]: 14.67 x10E3/uL
LYMPHOCYTE [4]: 88.67%
MEAN CORPUSCULAR HEMOGLOBIN [4]: 25.27 pg
MEAN CORPUSCULAR HEMOGLOBIN CONCENTRATION [4]: 39.6 G/DL
MEAN CORPUSCULAR VOLUME [4]: 63.83 fL
MONOCYTE [4]: 0%
NEUTROPHIL [4]: 11%
NUCLEATED RED BLOOD CELLS [4]: 0.33 /100WBC
PLATELET COUNT [4]: 1393 x10E3/uL
ALANINE AMINOTRANSFERASE [4]: 71 u/L
ALBUMIN [4]: 4.07 G/DL
ALKALINE PHOSPHATASE [4]: 356.67 u/L
ASPARTATE AMINOTRANSFERASE [4]: 83.33 u/L
BLOOD UREA NITROGEN [4]: 16 mg/dL
CARBON DIOXIDE [4]: 23 mmol/L
CHLORIDE [4]: 106.33 MEQ/L
CHOLESTEROL [4]: 70.33 mg/dL
CREATINE PHOSPHOKINASE [4]: 456 u/L
CREATININE [4]: 0.21 mg/dL
GLUCOSE [4]: 189.33 mg/dL
LACTATE DEHYDROGENASE [4]: 144.67 u/L
LIPASE [4]: 10 u/L
PHOSPHORUS [4]: 12.87 mg/dL
POTASSIUM [4]: 5.46 MEQ/L
SODIUM [4]: 149.13 MEQ/L
TOTAL BILIRUBIN [4]: 0.27 mg/dL
TOTAL PROTEIN [4]: 5.83 G/DL
URIC ACID [4]: 1.7 mg/dL
